These results are taken from patent publication US20100204467A1, “LANTHANIDE (III) ION COMPLEXING COMPOUNDS, LUMINESCENT LANTHANIDE (III) ION COMPLEXES AND USE THEREOF AS FLUORESCENT LABELS” (CIS BIO INTERNATIONAL, priority 2007, published 2010).

The nature of data set [1]: Ligand reduction potential. It is filed as physicochemical. To be noted: vs n.h.e., 298K, 0.1 M NBu4ClO4, MeCN. The source says:
The quenching process with urate is believed to involve an intermediate exciplex, involving a short-lived bonding π-π interaction. This is disfavoured as the sensitising chromophore becomes less susceptible to accept electron density and is reflected in the ligand reduction potential. For compound (7), this was −1.52 V (vs n.h.e., 298K, 0.1 M NBu4ClO4, MeCN), which compares to −1.07 V for the cyclohexyl tetraazatriphenylene and −1.60 V for the 1-aza-xanthone (2). Terbium complexes of L^1 and L^2 resisted urate and ascorbate quenching more effectively than the comparator complexes.

A further data set has as its target human serum albumin (Homo sapiens, UniProt P02768). Nature of the data set: Emission lifetime in the presence of human serum albumin, urate and ascorbate. To be noted: 0.4 mM human serum albumin, 0.1 mM sodium urate, 0.2 mM ascorbate, pH 7.4, 298K, 0.1M HEPES. How it is done:
In the presence of 0.4 mM human serum albumin, 0.1 mM sodium urate and 0.2 mM ascorbate, (pH 7.4, 298K, 0.1M HEPES), the emission lifetime of [TbL^2]^3+ was within 10% of its value in water, i.e. 2.1 ms, compared to 0.7 ms and 0.5 ms for [TbL^6]^3+ and [TbL^4]^3+ respectively under the same conditions.

A short description of data set [2]: Stern-Volmer excited state quenching by iodide. The conditions noted are these: pH 7.4, 0.1 M HEPES, 298K. It counts as physicochemical. The source says: (§1) A key issue in assessing the utility of such luminescent complexes for intracellular application is their sensitivity towards quenching by endogenous electron-rich species (e.g. urate/ascorbate) either when the complexes are free or protein bound. Accordingly, the Stern-Volmer quenching constants (KSv^−1/mM) defining their relative sensitivity to quenching can be assessed comparatively, (Table 2).

Data set [3] is described as follows: Stern-Volmer excited state quenching by ascorbate. It is filed as physicochemical. The conditions noted are these: pH 7.4, 0.1 M HEPES, 298K.
From the text: as §1

Data set [4] can be described thus: Stern-Volmer excited state quenching by urate. To be noted: pH 7.4, 0.1 M HEPES, 298K. It counts as physicochemical.
From the text: as §1

The nature of data set [5]: Triplet energy measured on Gd analogues in frozen glass (77K). To be noted: Gd analogues in frozen glass of Et2O/isopentane/ethanol or EtOH/MeOH (2:1). It counts as physicochemical.
Data set [6] relates to Chinese hamster ovarian cells. The conditions noted are these: observed previously under the same standard conditions; cited from earlier work.
A short description of data set [7]: Absorption spectrum of Tb(III) complexes. The conditions noted are these: for γmax: absorption, Tb(III) complexes; for ε: molar extinction coefficient. It counts as physicochemical. The source says:
(§2) Absorption, emission and triplet energy data for these complexes are collated in Table 1.
The absorption spectrum of [TbL^1]

A further data set is described as follows: Emission quantum yield. It counts as physicochemical. To be noted: quantum yields ±15%.
From the text: as §2

The nature of data set [8]: Terbium emission lifetime / decay rate constants in H2O and D2O. It is filed as physicochemical. The conditions noted are these: lifetime ±10%.
From the text: as §2

[9] abbreviates: first of two columns headed kD2O^Tb.
Where [10] appears, read: second of two columns headed kD2O^Tb.

Chain of human serum albumin (P02768 25-609): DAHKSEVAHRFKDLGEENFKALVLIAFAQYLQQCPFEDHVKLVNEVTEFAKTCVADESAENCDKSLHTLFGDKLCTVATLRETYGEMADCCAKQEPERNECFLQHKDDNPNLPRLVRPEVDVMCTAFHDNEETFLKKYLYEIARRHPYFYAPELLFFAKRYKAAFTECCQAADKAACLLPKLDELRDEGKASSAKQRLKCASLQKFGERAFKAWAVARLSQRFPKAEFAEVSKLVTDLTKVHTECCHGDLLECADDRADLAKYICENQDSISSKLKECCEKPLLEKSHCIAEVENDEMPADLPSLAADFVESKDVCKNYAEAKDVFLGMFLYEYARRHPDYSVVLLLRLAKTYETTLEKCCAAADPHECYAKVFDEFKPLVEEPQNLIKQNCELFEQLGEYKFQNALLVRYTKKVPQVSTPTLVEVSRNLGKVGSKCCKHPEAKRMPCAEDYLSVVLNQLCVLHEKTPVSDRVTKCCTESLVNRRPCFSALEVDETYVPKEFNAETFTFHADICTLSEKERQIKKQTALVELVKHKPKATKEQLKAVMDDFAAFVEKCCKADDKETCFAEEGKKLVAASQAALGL

Take `CC(C)(C)c1ccc2oc3cccnc3c(=O)c2c1` [Compound 2, 7-Tert-Butyl-1-Azaxanthone]: the ligand reduction potential in [1] was −1.60 V.
Still for that read-out and setting: then `Cc1ccn(-c2ccc3c(=O)c4cc(C(C)(C)C)ccc4oc3n2)n1` [Compound 7, 7-Tert-Butyl-2-(N-3′-Methylpyrazole)-1-Azaxanthone], with −1.52 V.
For `CC(NC(=O)CN1CCN(CC(=O)NC(C)c2ccccc2)CCN(Cc2ccc3c(=O)c4cc(C(C)(C)C)ccc4oc3n2)CCN(CC(=O)NC(C)c2ccccc2)CC1)c1ccccc1.[Tb+3]` (stereo not shown) [[TbL^4]^3+], at human serum albumin, the emission lifetime was determined as 0.5 ms. Also, the “Ksv^−1 (I^−)” value in data set [2] is 9.2 mM. For the same molecule, the “Ksv^−1 ascorbate” value in [3] worked out at 0.37 mM. Moreover, the “Ksv^−1 (urate)” value in data set [4] is given as 0.04 mM. The “ET^Gd” value in data set [5] is recorded as 24,800 cm^−1. The nuclear localisation result in [6] is on record as “tendency for nuclear localisation”. For the same molecule, in [7], the γmax turned out to be 335 nm and the ε was 6,900 M^−1 cm^−1. This molecule also showed a nem^Tb (H2O) in “Emission quantum yield” of 37%. In data set [8] (setting [9]), the “kD2O^Tb” value worked out at 610 s⁻¹. Moreover, in [8] (setting [10]), the “kD2O^Tb” value worked out at 350 s⁻¹.
Take `CC(NC(=O)CN1CCN(CC(=O)NC(C)c2ccccc2)CCN(Cc2ccc3c(n2)c2ncccc2c2nc4c(nc32)CCCC4)CCN(CC(=O)NC(C)c2ccccc2)CC1)c1ccccc1.[Tb+3]` (stereo not shown) [[TbL^6]^3+]: the emission lifetime on human serum albumin is given as 0.7 ms. Further, the “ET^Gd” value in data set [5] is listed as 23,800 cm^−1. Also, the nuclear localisation entry in data set [6] is “tendency for nuclear localisation”. Besides, in data set [7], the γmax is listed as 348 nm and the ε is 8,300 M^−1 cm^−1. Also, in the data set “Emission quantum yield”, the nem^Tb (H2O) was 40%. Moreover, the “kD2O^Tb” value in [8] (setting [9]) worked out at 640 s⁻¹. For the same molecule, the “kD2O^Tb” value in data set [8] (setting [10]) came to 580 s⁻¹.
Take “cyclohexyl tetraazatriphenylene [reference compound]”: in data set [1], the ligand reduction potential is recorded as −1.07 V.
